Reference: publication PMC6270921, “Study on the Cytotoxic Activity of Drimane Sesquiterpenes and Nordrimane Compounds against Cancer Cell Lines” (Molecules, 2014)

Legend:
[1] = tested on: caspase-3 in PC-3 cells; test: Caspase 3 activity assay (colorimetric, DEVD-pNA); assay type: cell-based, human; settings: PC-3, compound 50 μM; control 1% ethanol
Description: (§1) Depletion of mitochondrial membrane potential leads to the release of apoptogenic factors, such as cytochrome c in the apoptotic cascade, and activation of caspases. Then we investigated the effects of our compounds on caspase activity. We focused on caspase-3, which is a main executor of apoptosis playing a central role in its biological processing. We analyzed the effect of treatment with the compound 1, 8 and 12 on caspase-3 activation in normal and cancer cells. […] Compound 1 increased the activity of caspase-3 by 3.4 ± 0.1, 1.4 ± 0.1 and 2.8 ± 0.1 times versus control cells in MCF-7 (black), CoN (white) and PC-3 (gray) cells, respectively. Compound 8 increased the activity of caspase 3 by 2.4 ± 0.1, 1.3 ± 0.2 and 2.7 ± 0.1 times versus control cells in MCF-7 (black), CoN (white) and PC-3 (gray) cells, respectively.
(§2) Caspase activity was measured using a colorimetric assay. Briefly, the cells exposed to compounds were collected by centrifugation at 1000 rpm and lysed with lysis buffer (1% Triton X-100, 0.32 M sucrose, 5 mM EDTA, 10 mM Tris–HCl, pH 8.0, 2 mM dithiothreitol, 1 mM PMSF, […] aprotinin, 1 mg/mL leupeptin). Thereafter, the lysates were transferred to wells in a 96-well microplate and were incubated with DEVD-pNA (final concentration 200 μM) specific for caspase-3/7, at 37 °C for 1 h. The intensity of the developed color was read at 405 nm in a microplate reader (SpectraMax, Winooski, VT, USA). The results are expressed as percentages of the control level.

[2] = tested on: caspase-3 in CoN cells; test: Caspase 3 activity assay (colorimetric, DEVD-pNA); assay type: cell-based, human; settings: compound 50 μM, control 1% ethanol
Description: as §1, §2

[3] = tested on: caspase-3 in MCF-7 cells; test: Caspase 3 activity assay (colorimetric, DEVD-pNA); assay type: cell-based, human; settings: MCF-7, compound 50 μM; control 1% ethanol
Description: as §1, §2

[4] = tested on: MCF-7 cells; test: Morphological changes, phase contrast microscope; assay type: cell-based, human; settings: MCF-7, 50 μM compound for 24 h
Procedure: (§3) First, the appearance of morphological changes in the cells treated with 50 μM compound for 24 h was analyzed.

[5] = tested on: PC-3 cells; test: Morphological changes, phase contrast microscope; assay type: cell-based, human; settings: PC-3, 50 μM compound for 24 h
Procedure: as §3

[6] = tested on: CoN cells; test: Morphological changes, phase contrast microscope; assay type: cell-based, human; settings: 50 μM compound for 24 h
Procedure: as §3

[7] = tested on: MCF-7 cells; test: Morphological assessment of cell apoptosis, Hoechst 33342 staining; assay type: cell-based, human; settings: MCF-7, 24 h exposure, fluorescence microscope
Procedure: (§4) Nuclear changes in PC-3, MCF-7 and CoN cells were observed under a fluorescence microscope (200×, Figure 4).
(§5) Briefly, on 24-well chamber slides, 1 × 10^4 cells/mL were cultured and exposed to compounds for 24 h. The control group was also exposed to 1% ethanol. The cells were washed twice with phosphate buffer solution, fixed with 3.7% formaldehyde, and washed again with phosphate buffer solution. Following the addition of 1 μM Hoechst 33342 (Sigma-Aldrich, Santiago, Chile), they were reacted in a dark room at room temperature for 30 min. After washing, they were examined under an immunofluorescence microscope (IX 81 model inverted microscope, Olympus, Santiago, Chile).

[8] = tested on: PC-3 cells; test: as above; assay type: cell-based, human; settings: PC-3, 24 h exposure, fluorescence microscope
Procedure: as §4, §5

[9] = tested on: CoN cells; test: as above; assay type: cell-based, human; settings: 24 h exposure, fluorescence microscope
Procedure: as §4, §5

[10] = tested on: panel of cancer cell lines; test: Cytotoxicity against a panel of cancer cell lines (summary); assay type: cell-based; settings: Homo sapiens; summary statement of the conclusions
Procedure: (§6) The cytotoxicity of compounds 1–12 was evaluated in vitro against different cancer cell lines: MCF-7 breast cancer, DU-145 and PC-3 human prostate cancer, and one non-tumor cell line, human colon epithelial cells CCD 841 CoN (CoN). […] Four serial dilutions (from 12.5 to 100 μM) for each sample were evaluated in triplicate.
(§7) The sulforhodamine B assay was used according to the method of Skehan et al.. Briefly, the cells were set up at 3 × 10^3 cells per well of a 96 200 μL well, flat-bottomed, microplate. Cells were incubated at 37 °C in a humidified 5% CO2/95% air mixture and treated with the compounds at different concentrations for 72 h. At the end of drug exposure, cells were fixed with 50% trichloroacetic acid at 4 °C. After washing with water, cells were stained with 0.1% sulforhodamine B (Sigma-Aldrich, St. Louis, MO, USA), dissolved in 1% acetic acid (50 μL/well) for 30 min, and subsequently washed with 1% acetic acid to remove unbound stain. Protein-bound stain was solubilized with 100 μL of 10 mM unbuffered Tris base, and the cell density was determined using a […] plate reader (wavelength 540 nm). Values shown are the mean ± SD of three independent experiments in triplicate. The software used to calculate the IC50 values was GraphPad (GraphPad Software, San Diego, CA, USA).

[11] = tested on: Salmonella strains TA 98, TA 2637, and TA 100; settings: at highest non-toxic concentration; cited from earlier work
[12] = tested on: PC-3 prostate cancer cell line; test: Cell viability, sulforhodamine B assay; assay type: cell-based; settings: Homo sapiens, 72 h exposure, dilutions 12.5 to 100 μM, read-out: Cytotoxicity IC50, PC-3
Procedure: as §6
(§8) The experimental cell cultures were obtained from the American Type Culture Collection (Rockville, MD, USA). MCF-7 cells (breast cancer cell line), PC-3 and DU-145 (prostate cancer cell lines), and human colon epithelial cells CCD 841 CoN (non-tumoral cell line) were grown in Dulbecco’s modified Eagle’s medium (DMEM) containing 10% FCS, 100 U/mL penicillin, 100 μg/mL streptomycin, and 1 mM glutamine. Cells were seeded into 96 well microtiter plates in 100 μL at a plating density of 5 × 10^3 cells/well. After 24 h incubation at 37 °C under a humidified 5% CO2 atmosphere to allow cell attachment, the cells were treated with different concentrations of drugs and incubated for 72 h under the same conditions. Stock solutions of compounds were prepared in ethanol and the final concentration of this solvent was kept constant at 1%. Control cultures received 1% ethanol alone.
as §7

[13] = tested on: MCF-7 breast cancer cell line; test: Cell viability, sulforhodamine B assay; assay type: cell-based; settings: Homo sapiens, MCF7, 72 h exposure, dilutions 12.5 to 100 μM, read-out: Cytotoxicity IC50, MCF-7
Procedure: as §6, §8, §7

[14] = Cell viability, sulforhodamine B assay; assay type: cell-based; settings: human, CCD 841 CoN colon epithelial cells (non-tumoral cell line), 72 h exposure, dilutions 12.5 to 100 μM, non-tumor cell line, read-out: Cytotoxicity IC50, CoN
Procedure: as §6, §8, §7

[15] = tested on: DU-145 prostate cancer cell line; test: Cell viability, sulforhodamine B assay; assay type: cell-based; settings: Homo sapiens, 72 h exposure, dilutions 12.5 to 100 μM, read-out: Cytotoxicity IC50, DU145
Procedure: as §6, §8, §7

## CC1(C)CCC[C@]2(C)[C@@H](C=O)C(C=O)=CC[C@@H]12 [Compound 1, polygodial]
[1]
  increase of caspase-3 activity: 2.8 ± 0.1 times versus control cells
[2]
  increase of caspase-3 activity: 1.4 ± 0.1 times versus control cells
[3]
  increase of caspase-3 activity: 3.4 ± 0.1 times versus control cells
[4]
  morphological changes of cells: severely distorted
[5]
  morphological changes of cells: severely distorted
[6]
  morphological changes of cells: severely distorted
[7]
  nuclear changes after Hoechst 33342 staining: chromatin condensation and karyopyknosis
[8]
  nuclear changes after Hoechst 33342 staining: chromatin condensation and karyopyknosis
[9]
  nuclear changes after Hoechst 33342 staining: chromatin condensation and karyopyknosis
[10]
  IC50: < 200 µM
[11]
  mutagenic activity: no mutagenic activity
[12]
  IC50: 89.2 ± 6.8 µM
[13]
  IC50: 93.7 ± 9.1 µM
[14]
  IC50 at 72 h: > 200 µM
[15]
  IC50: 71.4 ± 8.5 µM
